{"source": "patent US20240358020A1", "about": "“FORMAMIDE DERIVATIVE AND AGRICULTURAL OR HORTICULTURAL PLANT DISEASE CONTROL AGENT” (Kumiai Chemical Industry Co., Ltd., priority 2021, published 2024)", "assay_type_in_all_cases": "in vivo", "key": {"[1]": {"tested_on": "Wheat rust (Puccinia recondita)", "assay": "Wheat rust control effect test", "conditions": "chemical solution 50 ppm active ingredient sprayed on wheat seedlings, then spray-inoculated; first leaf examined after 9 days", "source_text": "(§1) [in the formula, N represents the total number of examined leaves, n0 represents the number of leaves having a disease severity index of 0, n1 represents the number of leaves having a disease severity index of 1, n2 represents the number of leaves having a disease severity index of 2, n3 represents the number of leaves having a disease severity index of 3, and n4 represents the number of leaves having a disease severity index of 4.]\n[Test Example 2] Wheat rust (Puccinia recondita) control effect test Wheat seeds were sown in a pot, and a chemical solution was sprayed on the grown seedlings so that the concentration of the active ingredient was 50 ppm. Thereafter, a wheat rust fungus was spray-inoculated, the pot was transferred to a wet room and was kept under dark conditions, and invasion of pathogens was promoted. Thereafter, the pot was managed in a greenhouse, after 9 days, a degree of disease severity for each first leaf was examined according to the criteria in Table 220 to determine a degree of disease severity by a calculation formula of Equation 1, and a control value was determined by a calculation formula of Equation Formula 2."}, "[2]": {"tested_on": "Soybean Rust (Phakopsora pachyrhizi)", "assay": "Soybean rust control effect test", "conditions": "sprayed on soybean seedlings at 100 g a.i./ha, then spray-inoculated; disease severity of first leaf examined after 12 to 14 days", "source_text": "[Test Example 1] Soybean Rust (Phakopsora pachyrhizi) Control Effect Test\nSoybean seeds were sown in a pot and sprayed on the grown seedlings so that the amount of the active ingredient was 100 g a.i./ha. Thereafter, a soybean rust fungus was spray-inoculated, the pot was transferred to a wet room and was kept under dark conditions, and invasion of pathogens was promoted. Thereafter, the pot was managed in a greenhouse, after 12 to 14 days, a degree of disease severity for each first leaf was examined according to the criteria in Table 226 to determine a degree of disease severity by a calculation formula of Equation 1, and a control value was determined by a calculation formula of Equation 2.\nas §1"}, "[3]": {"tested_on": "Rice Sheath Blight Disease (Rhizoctonia solani)", "assay": "Rice sheath blight disease control effect test", "conditions": "chemical solution 50 ppm active ingredient sprayed on rice seedlings, then inoculated with bran medium culture; lesion height examined after 5 days", "source_text": "as §1\n[Test Example 3] Rice Sheath Blight Disease (Rhizoctonia solani) Control Effect Test\nRice seeds were sown in a pot, and a chemical solution was sprayed on the grown seedlings so that the concentration of the active ingredient was 50 ppm. Thereafter, a bran medium in which a rice sheath blight fungi was cultured was inoculated into the strain, the bran medium was transferred to a wet room, and invasion of pathogens was promoted. Thereafter, the pot was managed in a greenhouse, after 5 days, a lesion height was examined according to the criteria in Table 221 to determine a degree of disease severity by a calculation formula of Equation 1, and a control value was determined by a calculation formula of Equation 2."}}, "data": [{"smiles": "CCC(=O)N(Cc1ccccc1)c1ccc(-c2noc(C(F)(F)F)n2)cc1", "note": "[comparative compound]", "values": [{"measurement": "control value", "setting": "[1]", "value": "≤ 12.5"}, {"measurement": "control value", "setting": "[2]", "value": "less than 60"}, {"measurement": "control value", "setting": "[3]", "value": "≤ 12.5"}]}]}
